Legend:
[1] = molecular target: T1, Peroxisome proliferator-activated receptor alpha (Homo sapiens, UniProt Q07869); type: functional
T1 sequence (Q07869 whole entry): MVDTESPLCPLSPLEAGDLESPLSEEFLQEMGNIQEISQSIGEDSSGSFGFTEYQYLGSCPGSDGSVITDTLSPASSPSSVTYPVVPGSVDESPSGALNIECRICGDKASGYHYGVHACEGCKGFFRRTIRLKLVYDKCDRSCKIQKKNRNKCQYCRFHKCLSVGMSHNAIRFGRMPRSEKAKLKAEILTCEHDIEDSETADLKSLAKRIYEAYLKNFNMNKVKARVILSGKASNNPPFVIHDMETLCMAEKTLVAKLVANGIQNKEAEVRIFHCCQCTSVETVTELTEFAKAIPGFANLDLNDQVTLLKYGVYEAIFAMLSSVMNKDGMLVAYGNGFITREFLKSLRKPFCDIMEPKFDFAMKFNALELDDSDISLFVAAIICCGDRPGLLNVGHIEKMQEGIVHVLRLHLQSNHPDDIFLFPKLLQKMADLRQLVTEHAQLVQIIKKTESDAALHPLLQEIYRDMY

[2] = molecular target: cGMP-inhibited 3',5'-cyclic phosphodiesterase 3A (Homo sapiens, UniProt Q14432); type: functional
Progesterone receptor = molecular target: T2, Progesterone receptor (Homo sapiens, UniProt P06401)
T2 sequence (P06401 whole entry): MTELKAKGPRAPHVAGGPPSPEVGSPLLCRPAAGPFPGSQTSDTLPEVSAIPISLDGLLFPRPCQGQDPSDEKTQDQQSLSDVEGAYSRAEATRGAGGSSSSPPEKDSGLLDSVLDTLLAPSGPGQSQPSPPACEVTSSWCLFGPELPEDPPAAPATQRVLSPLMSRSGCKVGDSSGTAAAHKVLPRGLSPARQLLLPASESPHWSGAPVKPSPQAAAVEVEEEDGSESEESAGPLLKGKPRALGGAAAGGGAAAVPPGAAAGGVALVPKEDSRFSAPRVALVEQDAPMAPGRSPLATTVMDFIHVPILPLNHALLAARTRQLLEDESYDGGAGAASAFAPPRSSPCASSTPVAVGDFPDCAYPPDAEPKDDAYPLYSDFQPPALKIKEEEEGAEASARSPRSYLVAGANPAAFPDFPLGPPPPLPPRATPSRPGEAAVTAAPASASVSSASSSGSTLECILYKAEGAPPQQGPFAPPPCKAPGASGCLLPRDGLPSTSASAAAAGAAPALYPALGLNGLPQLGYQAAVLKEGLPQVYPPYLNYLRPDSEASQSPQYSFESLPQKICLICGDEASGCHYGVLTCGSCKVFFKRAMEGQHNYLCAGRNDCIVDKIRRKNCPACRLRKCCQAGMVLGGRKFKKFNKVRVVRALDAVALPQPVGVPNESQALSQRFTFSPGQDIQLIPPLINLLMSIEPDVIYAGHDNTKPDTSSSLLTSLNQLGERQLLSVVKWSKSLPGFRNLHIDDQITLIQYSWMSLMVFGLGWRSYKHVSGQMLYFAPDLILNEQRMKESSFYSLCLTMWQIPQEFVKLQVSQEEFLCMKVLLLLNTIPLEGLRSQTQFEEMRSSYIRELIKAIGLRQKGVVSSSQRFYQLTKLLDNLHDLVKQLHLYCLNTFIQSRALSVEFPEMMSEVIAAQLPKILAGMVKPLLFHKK

Androgen receptor = molecular target: T3, Androgen receptor (Homo sapiens, UniProt P10275)
T3 sequence (P10275 whole entry): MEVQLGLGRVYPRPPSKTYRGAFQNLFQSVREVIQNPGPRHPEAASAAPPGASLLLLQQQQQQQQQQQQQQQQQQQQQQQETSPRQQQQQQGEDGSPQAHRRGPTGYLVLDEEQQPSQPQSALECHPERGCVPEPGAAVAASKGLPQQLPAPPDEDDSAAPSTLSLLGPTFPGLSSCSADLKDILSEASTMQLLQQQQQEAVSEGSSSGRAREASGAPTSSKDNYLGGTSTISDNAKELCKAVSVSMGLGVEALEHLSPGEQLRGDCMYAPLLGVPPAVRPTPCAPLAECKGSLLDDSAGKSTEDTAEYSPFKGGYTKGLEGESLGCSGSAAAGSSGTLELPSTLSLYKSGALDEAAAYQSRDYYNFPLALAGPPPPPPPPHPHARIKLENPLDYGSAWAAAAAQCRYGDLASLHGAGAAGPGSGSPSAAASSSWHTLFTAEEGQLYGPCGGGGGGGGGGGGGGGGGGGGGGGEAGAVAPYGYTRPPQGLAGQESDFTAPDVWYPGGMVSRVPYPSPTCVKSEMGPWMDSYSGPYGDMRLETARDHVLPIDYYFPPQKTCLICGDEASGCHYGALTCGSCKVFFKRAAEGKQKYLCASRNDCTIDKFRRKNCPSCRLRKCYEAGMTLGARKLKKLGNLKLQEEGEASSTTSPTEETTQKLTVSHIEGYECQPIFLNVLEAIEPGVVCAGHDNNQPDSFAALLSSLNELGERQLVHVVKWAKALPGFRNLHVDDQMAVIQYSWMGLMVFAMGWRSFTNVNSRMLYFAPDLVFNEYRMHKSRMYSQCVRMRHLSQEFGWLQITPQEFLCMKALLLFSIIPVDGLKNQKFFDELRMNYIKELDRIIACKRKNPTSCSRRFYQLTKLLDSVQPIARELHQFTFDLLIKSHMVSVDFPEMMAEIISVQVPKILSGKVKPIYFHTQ

[3] = molecular target: T4, Muscarinic acetylcholine receptor M2 (Homo sapiens, UniProt P08172)
T4 sequence (P08172 whole entry): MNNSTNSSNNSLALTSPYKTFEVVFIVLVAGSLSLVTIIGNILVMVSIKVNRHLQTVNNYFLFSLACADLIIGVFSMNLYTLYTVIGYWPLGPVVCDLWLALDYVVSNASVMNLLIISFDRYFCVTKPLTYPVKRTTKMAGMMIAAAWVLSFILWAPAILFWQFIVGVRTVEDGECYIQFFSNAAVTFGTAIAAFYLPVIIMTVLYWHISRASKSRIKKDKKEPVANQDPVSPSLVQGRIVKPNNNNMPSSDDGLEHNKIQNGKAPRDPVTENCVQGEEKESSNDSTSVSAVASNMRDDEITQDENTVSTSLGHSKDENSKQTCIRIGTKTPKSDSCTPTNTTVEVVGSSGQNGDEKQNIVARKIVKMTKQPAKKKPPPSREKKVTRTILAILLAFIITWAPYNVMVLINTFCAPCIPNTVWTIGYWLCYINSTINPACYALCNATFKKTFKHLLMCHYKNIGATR

[4] = molecular target: Prostaglandin G/H synthase 1 (Homo sapiens, UniProt P23219); type: functional
Also: assay procedure not described here.

Sequence of Prostaglandin G/H synthase 1 (P23219 whole entry): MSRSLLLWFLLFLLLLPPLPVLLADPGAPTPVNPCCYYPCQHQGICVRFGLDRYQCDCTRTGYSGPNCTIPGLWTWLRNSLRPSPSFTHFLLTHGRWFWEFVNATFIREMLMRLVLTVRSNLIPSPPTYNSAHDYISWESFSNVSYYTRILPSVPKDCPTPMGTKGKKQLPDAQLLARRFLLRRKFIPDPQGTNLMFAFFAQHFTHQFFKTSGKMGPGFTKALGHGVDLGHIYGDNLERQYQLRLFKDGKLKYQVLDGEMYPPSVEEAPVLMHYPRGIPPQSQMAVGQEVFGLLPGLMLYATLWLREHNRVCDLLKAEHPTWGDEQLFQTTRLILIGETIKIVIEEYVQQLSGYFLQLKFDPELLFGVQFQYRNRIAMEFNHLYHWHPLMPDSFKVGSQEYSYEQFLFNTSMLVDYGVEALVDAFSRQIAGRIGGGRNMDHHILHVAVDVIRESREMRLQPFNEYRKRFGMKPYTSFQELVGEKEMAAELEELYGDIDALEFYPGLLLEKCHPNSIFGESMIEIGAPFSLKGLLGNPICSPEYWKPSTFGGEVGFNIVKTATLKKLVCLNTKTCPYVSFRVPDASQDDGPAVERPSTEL
Sequence of cGMP-inhibited 3',5'-cyclic phosphodiesterase 3A (Q14432 whole entry): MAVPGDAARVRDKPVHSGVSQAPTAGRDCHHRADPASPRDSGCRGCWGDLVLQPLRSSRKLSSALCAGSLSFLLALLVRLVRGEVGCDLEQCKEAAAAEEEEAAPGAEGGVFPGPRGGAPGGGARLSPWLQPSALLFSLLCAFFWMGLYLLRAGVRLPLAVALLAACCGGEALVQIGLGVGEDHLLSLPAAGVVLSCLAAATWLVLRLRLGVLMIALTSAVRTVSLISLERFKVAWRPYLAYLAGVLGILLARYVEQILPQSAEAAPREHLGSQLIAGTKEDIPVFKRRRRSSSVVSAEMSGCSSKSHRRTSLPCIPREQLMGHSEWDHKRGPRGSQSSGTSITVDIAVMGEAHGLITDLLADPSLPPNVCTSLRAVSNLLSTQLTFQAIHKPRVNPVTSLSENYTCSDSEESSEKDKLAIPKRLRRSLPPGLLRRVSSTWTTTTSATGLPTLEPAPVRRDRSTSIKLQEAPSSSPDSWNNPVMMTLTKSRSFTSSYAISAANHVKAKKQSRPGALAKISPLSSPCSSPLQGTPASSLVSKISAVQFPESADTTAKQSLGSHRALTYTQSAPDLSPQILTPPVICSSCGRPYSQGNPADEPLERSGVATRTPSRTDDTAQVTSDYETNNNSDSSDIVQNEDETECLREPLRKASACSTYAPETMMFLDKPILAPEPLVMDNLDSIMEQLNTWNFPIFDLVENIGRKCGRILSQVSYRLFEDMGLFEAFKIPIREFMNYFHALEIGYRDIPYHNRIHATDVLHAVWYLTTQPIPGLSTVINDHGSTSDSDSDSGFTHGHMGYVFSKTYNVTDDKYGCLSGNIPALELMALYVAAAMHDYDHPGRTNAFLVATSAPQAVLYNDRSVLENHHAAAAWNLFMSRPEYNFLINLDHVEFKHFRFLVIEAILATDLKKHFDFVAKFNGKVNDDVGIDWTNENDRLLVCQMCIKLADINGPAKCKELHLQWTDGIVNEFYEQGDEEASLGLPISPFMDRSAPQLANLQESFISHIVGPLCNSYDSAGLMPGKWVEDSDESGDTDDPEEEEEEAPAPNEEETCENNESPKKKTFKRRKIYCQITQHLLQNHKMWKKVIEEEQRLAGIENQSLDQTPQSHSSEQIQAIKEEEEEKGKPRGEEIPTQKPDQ

Compound | AC50 [1] | AC50 [2] | AC50 (Progesterone receptor) | AC50 (Androgen receptor) | AC50 [3] | AC50 [4]
CCOC(=O)C(C)(C)Oc1ccc(Cl)cc1 [CLOFIBRATE] | > 30 µM |  |  |  |  | 
CCN(CC)CCCC(C)Nc1c2ccc(Cl)cc2nc2ccc(OC)cc12 (stereo unspecified) [QUINACRINE] |  | > 30 µM | > 10 µM | > 30 µM | 0.768 µM | > 30 µM

— ChEMBL document CHEMBL5291721, “A preclinical secondary pharmacology resource illuminates target-adverse drug reaction associations of marketed drugs” (Nat Commun, 2023)
